Reference: ChEMBL document CHEMBL1201862, “PubChem BioAssay data set” (2004)
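Interpolation was linear, between the two tested concentrations surrounding the appropriate level; five concentrations were tested over 48 hours in 96-well plates. GI50 marks 50% less growth.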 Activity calls are given as the source filed them. Rule as the data show it: active = GI50 up to about 1.1 µM and inactive = higher.

Key:
Assay in all cases: growth of human tumour cells (NCI), 48 h
UO-31 = test system: UO-31
Hs-578T = test system: Hs-578T
NCI-H522 = test system: NCI-H522
IGROV-1 = test system: IGROV-1
NCI-H460 = test system: NCI-H460
SNB-75 = test system: SNB-75
MDA-MB-231 = test system: MDA-MB-231
LOX IMVI = test system: LOX IMVI
KM-20L2 = test system: KM-20L2
SNB-19 = test system: SNB-19
HCC 2998 = test system: HCC 2998
OVCAR-4 = test system: OVCAR-4
A549 = test system: A549
HT-29 = test system: HT-29
HOP-62 = test system: HOP-62
RXF 393 = test system: RXF 393
BT-549 = test system: BT-549
SF-295 = test system: SF-295
RPMI-8226 = test system: RPMI-8226
Malme-3M = test system: Malme-3M
786-0 = test system: 786-0
HCT-15 = test system: HCT-15
DLD-1 = test system: DLD-1
SK-OV-3 = test system: SK-OV-3
OVCAR-5 = test system: OVCAR-5
LXFL 529 = test system: LXFL 529
SNB-78 = test system: SNB-78
CAKI-1 = test system: CAKI-1
M14 = test system: M14
SR = test system: SR
U-251 = test system: U-251
SN12C = test system: SN12C
HCT-116 = test system: HCT-116
NCI-H226 = test system: NCI-H226
ACHN = test system: ACHN
UACC-62 = test system: UACC-62
SF-268 = test system: SF-268
K562 = test system: K562
SF-539 = test system: SF-539
PC-3 = test system: PC-3
SW-620 = test system: SW-620
DMS-114 = test system: DMS-114
DU-145 = test system: DU-145
HL-60 = test system: HL-60
NCI-H23 = test system: NCI-H23
DMS-273 = test system: DMS-273
TK-10 = test system: TK-10
EKVX = test system: EKVX
UACC-257 = test system: UACC-257
NCI/ADR-RES = test system: NCI/ADR-RES
OVCAR-8 = test system: OVCAR-8
SK-MEL-5 = test system: SK-MEL-5
MDA-MB-435 = test system: MDA-MB-435
SK-MEL-2 = test system: SK-MEL-2
MCF7 = test system: MCF7
A498 = test system: A498
COLO 205 = test system: COLO 205
CCRF-CEM = test system: CCRF-CEM
MOLT-4 = test system: MOLT-4
M19-MEL = test system: M19-MEL
OVCAR-3 = test system: OVCAR-3
XF498 = test system: XF498
T47D = test system: T47D
SK-MEL-28 = test system: SK-MEL-28
KM12 = test system: KM12
MDA-N = test system: MDA-N
HOP-92 = test system: HOP-92
HOP-18 = test system: HOP-18

SMILES: Cc1nc(Nc2ccc(Cl)c(Cl)c2)sc1C(/C=C/c1ccc2c(c1)OCO2)=N/Nc1ccc([N+](=O)[O-])cc1[N+](=O)[O-]
- GI50 (UO-31): 78.2 µM (inactive)
- GI50 (Hs-578T): > 74.5 µM (inactive)
- GI50 (NCI-H522): 61 µM (inactive)
- GI50 (IGROV-1): > 100 µM (inactive)
- GI50 (NCI-H460): > 100 µM (inactive)
- GI50 (SNB-75): 13.2 µM (inactive)
- GI50 (MDA-MB-231): > 100 µM (inactive)
- GI50 (LOX IMVI): 67 µM (inactive)
- GI50 (KM-20L2): > 100 µM (inactive)
- GI50 (SNB-19): 48.1 µM (inactive)
- GI50 (HCC 2998): > 78.5 µM (inactive)
- GI50 (OVCAR-4): > 100 µM (inactive)
- GI50 (A549): > 100 µM (inactive)
- GI50 (HT-29): > 100 µM (inactive)
- GI50 (HOP-62): 59.8 µM (inactive)
- GI50 (RXF 393): 27.2 µM (inactive)
- GI50 (BT-549): > 100 µM (inactive)
- GI50 (SF-295): 53.3 µM (inactive)
- GI50 (RPMI-8226): > 82.2 µM (inactive)
- GI50 (Malme-3M): > 100 µM (inactive)
- GI50 (786-0): 20.1 µM (inactive)
- GI50 (HCT-15): > 97.1 µM
- GI50 (DLD-1): > 100 µM (inactive)
- GI50 (SK-OV-3): > 91.8 µM (inactive)
- GI50 (OVCAR-5): > 100 µM (inactive)
- GI50 (LXFL 529): > 68.5 µM (inactive)
- GI50 (SNB-78): 2.27 µM (inactive)
- GI50 (CAKI-1): > 46.5 µM (inactive)
- GI50 (M14): 61.7 µM (inactive)
- GI50 (SR): > 91.4 µM (inactive)
- GI50 (U-251): 41.1 µM (inactive)
- GI50 (SN12C): > 100 µM (inactive)
- GI50 (HCT-116): 56.5 µM (inactive)
- GI50 (NCI-H226): > 59 µM (inactive)
- GI50 (ACHN): > 92 µM (inactive)
- GI50 (UACC-62): > 61.9 µM (inactive)
- GI50 (SF-268): > 100 µM (inactive)
- GI50 (K562): > 80.4 µM (inactive)
- GI50 (SF-539): 43.8 µM (inactive)
- GI50 (PC-3): > 100 µM (inactive)
- GI50 (SW-620): > 100 µM (inactive)
- GI50 (DMS-114): 51.8 µM (inactive)
- GI50 (DU-145): > 100 µM (inactive)
- GI50 (HL-60): > 79.6 µM (inactive)
- GI50 (NCI-H23): 67.3 µM (inactive)
- GI50 (DMS-273): 32 µM (inactive)
- GI50 (TK-10): 66.5 µM (inactive)
- GI50 (EKVX): > 100 µM (inactive)
- GI50 (UACC-257): > 100 µM (inactive)
- GI50 (NCI/ADR-RES): > 100 µM (inactive)
- GI50 (OVCAR-8): > 100 µM (inactive)
- GI50 (SK-MEL-5): > 82.8 µM (inactive)
- GI50 (MDA-MB-435): > 100 µM (inactive)
- GI50 (SK-MEL-2): > 100 µM (inactive)
- GI50 (MCF7): > 100 µM (inactive)
- GI50 (A498): > 50.9 µM (inactive)
- GI50 (COLO 205): > 100 µM (inactive)
- GI50 (CCRF-CEM): 80.9 µM (inactive)
- GI50 (MOLT-4): > 56.2 µM (inactive)
- GI50 (M19-MEL): > 100 µM (inactive)
- GI50 (OVCAR-3): > 100 µM (inactive)
- GI50 (XF498): 13.9 µM (inactive)
- GI50 (T47D): > 100 µM (inactive)
- GI50 (SK-MEL-28): > 100 µM (inactive)
- GI50 (KM12): > 88.7 µM (inactive)
- GI50 (MDA-N): > 100 µM (inactive)
- GI50 (HOP-92): 85.1 µM (inactive)

SMILES: O=c1c2cc3c(cc2c2cccc4c2n1CCC4)OCO3
- GI50 (UO-31): 22.4 µM (inactive)
- GI50 (NCI-H522): 16.2 µM (inactive)
- GI50 (IGROV-1): 36.1 µM (inactive)
- GI50 (NCI-H460): 37.1 µM (inactive)
- GI50 (SNB-75): 26.7 µM (inactive)
- GI50 (LOX IMVI): 42.9 µM (inactive)
- GI50 (KM-20L2): 45.7 µM (inactive)
- GI50 (SNB-19): 44.7 µM (inactive)
- GI50 (HCC 2998): 26.6 µM (inactive)
- GI50 (OVCAR-4): 88.9 µM (inactive)
- GI50 (A549): 51.6 µM (inactive)
- GI50 (HT-29): 51.1 µM (inactive)
- GI50 (HOP-62): 56.8 µM (inactive)
- GI50 (RXF 393): 28.4 µM (inactive)
- GI50 (SF-295): 33.8 µM (inactive)
- GI50 (RPMI-8226): 30.2 µM (inactive)
- GI50 (Malme-3M): 86.1 µM (inactive)
- GI50 (HOP-18): 49.5 µM (inactive)
- GI50 (786-0): 27 µM (inactive)
- GI50 (HCT-15): 36.7 µM
- GI50 (DLD-1): 26.8 µM (inactive)
- GI50 (SK-OV-3): 55.3 µM (inactive)
- GI50 (OVCAR-5): 58.7 µM (inactive)
- GI50 (LXFL 529): 37.5 µM (inactive)
- GI50 (SNB-78): 68.5 µM (inactive)
- GI50 (CAKI-1): 78.9 µM (inactive)
- GI50 (M14): 46.9 µM (inactive)
- GI50 (SR): 29.2 µM (inactive)
- GI50 (U-251): 23.1 µM (inactive)
- GI50 (SN12C): 36.8 µM (inactive)
- GI50 (HCT-116): 23.4 µM (inactive)
- GI50 (NCI-H226): > 100 µM (inactive)
- GI50 (ACHN): 33.7 µM (inactive)
- GI50 (UACC-62): 46.2 µM (inactive)
- GI50 (K562): 45.8 µM (inactive)
- GI50 (SF-539): 30.4 µM (inactive)
- GI50 (SW-620): 29.4 µM (inactive)
- GI50 (HL-60): 53.8 µM (inactive)
- GI50 (NCI-H23): 22.4 µM (inactive)
- GI50 (DMS-273): 28.1 µM (inactive)
- GI50 (TK-10): 27.1 µM (inactive)
- GI50 (EKVX): 33 µM (inactive)
- GI50 (UACC-257): 33.1 µM (inactive)
- GI50 (OVCAR-8): 48.1 µM (inactive)
- GI50 (SK-MEL-5): 42.4 µM (inactive)
- GI50 (SK-MEL-2): > 100 µM (inactive)
- GI50 (COLO 205): 26.3 µM (inactive)
- GI50 (CCRF-CEM): 89.3 µM (inactive)
- GI50 (MOLT-4): 24.6 µM (inactive)
- GI50 (M19-MEL): 86.7 µM (inactive)
- GI50 (OVCAR-3): 61.2 µM (inactive)
- GI50 (SK-MEL-28): 69.5 µM (inactive)
- GI50 (KM12): 33.3 µM (inactive)
- GI50 (HOP-92): 55.5 µM (inactive)
